Data: patent US7964624B1, “Inhibitors of serine proteases” (priority 2005, dated 2011)

Target: T1, HCV NS3 protease domain (Hepatitis C virus genotype 1b, UniProt Q9WMX2)
T1 construct: The first 181 amino acids of NS3 (residues 1027-1207 of the viral polyprotein); hexa-histidine (C); made in house; host or cells: E. coli BL21/DE3 pLysS
Assay: biochemical
Details: Enzyme Assay 1 (HCV NS3 Protease Domain Peptide Cleavage Assay) activity, apparent Ki class

Row | Structure (SMILES) | Ki
1 | CCC[C@H](NC(=O)[C@@H]1C[C@]2(CC(c3cccc(Cl)c3)=NO2)CN1C(=O)[C@@H](NC(=O)CCC(=O)O)C(C)(C)C)C(=O)C(=O)NC1CC1 [Compound 484] | 100 to 500 nM
2 | CCC[C@H](NC(=O)[C@@H]1C[C@]2(CC(c3cccc(Cl)c3)=NO2)CN1C(=O)[C@@H](NC(=O)OCc1cccc(F)c1)C(C)(C)C)C(=O)C(=O)NC1CC1 [Compound 209] | 100 to 500 nM
3 | CCC[C@H](NC(=O)[C@@H]1C[C@]2(CC(c3cccc(Cl)c3)=NO2)CN1C(=O)[C@@H](NC(=O)[C@@H]1CCC(=O)N1Cc1cccc(C)c1)C(C)(C)C)C(=O)C(=O)NC1CC1 [Compound 518] | < 100 nM
4 | CCC[C@H](NC(=O)[C@@H]1C[C@]2(CC(c3c4ccccc4cc4ccccc34)=NO2)CN1C(=O)[C@@H](NC(=O)OCc1ccccc1)C(C)(C)C)C(=O)C(=O)NC1CC1 [Compound 199] | > 500 nM
5 | CCC[C@H](NC(=O)[C@@H]1C[C@]2(CC(c3cccc(Cl)c3)=NO2)CN1C(=O)[C@@H](NC(=O)CC1CCOCC1)C(C)(C)C)C(=O)C(=O)NC1CC1 [Compound 92] | 100 to 500 nM
6 | CCCC(NC(=O)[C@@H]1C[C@]2(CC(c3ccc(OC)c(OC)c3)=NO2)CN1C(=O)[C@@H](NC(=O)O[C@H]1CCOC1)C(C)(C)C)C(=O)C(=O)NC1CC1 (some centres unmarked) [Compound 196] | 100 to 500 nM
7 | CCC[C@H](NC(=O)[C@@H]1C[C@]2(CC(c3cc(C)c(OC)c(C)c3)=NO2)CN1C(=O)[C@@H](NC(=O)CC1CCOCC1)C(C)(C)C)C(=O)C(=O)NC1CC1 [Compound 572] | 100 to 500 nM
8 | CCC[C@H](NC(=O)[C@@H]1C[C@]2(CC(c3cccc(Cl)c3)=NO2)CN1C(=O)[C@@H](NC(=O)OCC1CCC1)C(C)(C)C)C(=O)C(=O)NC1CC1 [Compound 27] | 100 to 500 nM
9 | CCC[C@H](NC(=O)[C@@H]1C[C@]2(CC(c3cccc(Cl)c3)=NO2)CN1C(=O)[C@@H](NC(=O)CCc1cccc(OC)c1)C(C)(C)C)C(=O)C(=O)NC1CC1 [Compound 189] | > 500 nM
10 | CCC[C@H](NC(=O)[C@@H]1C[C@]2(CC(c3ccccc3)=NO2)CN1C(=O)[C@@H](NC(=O)NCc1ccccc1)C(C)(C)C)C(=O)C(=O)NC1CC1 [Compound 107] | 100 to 500 nM
11 | CCC[C@H](NC(=O)[C@@H]1C[C@]2(CC(c3cc(F)c(F)c(F)c3)=NO2)CN1C(=O)O[C@H]1CCOC1)C(=O)C(=O)NC1CC1 [Compound 414] | > 500 nM
12 | CCC[C@H](NC(=O)[C@@H]1C[C@@]2(CC(c3cc(F)c(F)c(F)c3)=NO2)CN1C(=O)[C@@H](NC(=O)O[C@H]1CCOC1)C(C)(C)C)C(=O)C(=O)NC1CC1 [Compound 455] | > 500 nM
13 | CCC[C@H](NC(=O)[C@@H]1C[C@]2(CC(c3ccccc3)=NO2)CN1C(=O)CC1CCN(Cc2c(Cl)cccc2Cl)CC1)C(=O)C(=O)NC1CC1 [Compound 53] | > 500 nM
14 | CCC[C@H](NC(=O)[C@@H]1C[C@@]2(CC(c3ccccc3)=NO2)CN1C(=O)c1ccc[nH]1)C(=O)C(=O)NC1CC1 [Compound 80] | > 500 nM
15 | CCC[C@H](NC(=O)[C@@H]1C[C@]2(CC(c3cc(F)cc(C(F)(F)F)c3)=NO2)CN1C(=O)[C@@H](NC(=O)O[C@H]1CCOC1)C(C)(C)C)C(=O)C(=O)NC1CC1 [Compound 498] | 100 to 500 nM
16 | CCC[C@H](NC(=O)[C@@H]1C[C@]2(CC(c3ccc(Cl)c(C)c3)=NO2)CN1C(=O)[C@@H](NC(=O)CC1CCCCC1)C(C)(C)C)C(=O)C(=O)NC1CC1 [Compound 436] | 100 to 500 nM
17 | CCC[C@H](NC(=O)[C@@H]1C[C@]2(CC(c3cccc(Cl)c3)=NO2)CN1C(=O)CN1C[C@H]2CCCC[C@H]2C[C@H]1C(=O)NC(C)(C)C)C(=O)C(=O)NC1CC1 [Compound 276] | > 500 nM
18 | CCC[C@H](NC(=O)[C@@H]1C[C@]2(CC(c3ccc(CC)o3)=NO2)CN1C(=O)[C@@H](NC(=O)CC1CCOCC1)C(C)(C)C)C(=O)C(=O)NC1CC1 [Compound 554] | > 500 nM
19 | CCC[C@H](NC(=O)[C@@H]1C[C@]2(CC(c3cccc(Cl)c3)=NO2)CN1C(=O)[C@@H](NC(=O)OCCOC)C(C)(C)C)C(=O)C(=O)NC1CC1 [Compound 260] | 100 to 500 nM
20 | CCC[C@H](NC(=O)[C@@H]1C[C@]2(CC(c3cccc(Cl)c3)=NO2)CN1C(=O)[C@@H](NC(=O)OCCc1ccccc1)C(C)(C)C)C(=O)C(=O)NC1CC1 [Compound 463] | > 500 nM
21 | CCC[C@H](NC(=O)[C@@H]1C[C@]2(CC(c3cccc(Cl)c3)=NO2)CN1C(=O)[C@@H](NC(=O)c1ccnn1-c1ccccc1)C(C)(C)C)C(=O)C(=O)NC1CC1 [Compound 571] | 100 to 500 nM
22 | CCC[C@H](NC(=O)[C@@H]1C[C@]2(CC(c3cc(F)cc(Cl)c3)=NO2)CN1C(=O)[C@@H](NC(=O)CC1CCCCC1)C(C)(C)C)C(=O)C(=O)NC1CC1 [Compound 95] | 100 to 500 nM
23 | CCC[C@H](NC(=O)[C@@H]1C[C@]2(CC(c3cc(C(F)(F)F)cc(C(F)(F)F)c3)=NO2)CN1C(=O)[C@@H](NC(=O)O[C@H]1CCOC1)C(C)(C)C)C(=O)C(=O)NC1CC1 [Compound 330] | 100 to 500 nM
24 | CCC[C@H](NC(=O)[C@@H]1C[C@]2(CC(c3ccc4c(c3)OCCO4)=NO2)CN1C(=O)[C@@H](NC(=O)O[C@H]1CCOC1)C(C)(C)C)C(=O)C(=O)NC1CC1 [Compound 456] | 100 to 500 nM
25 | CCC[C@H](NC(=O)[C@@H]1C[C@]2(CC(c3cccc(Cl)c3)=NO2)CN1C(=O)[C@@H](NC(=O)CC1CCCCCC1)C(C)(C)C)C(=O)C(=O)NC1CC1 [Compound 360] | > 500 nM
26 | CCC[C@H](NC(=O)[C@@H]1C[C@]2(CC(C(=O)c3ccccc3)=NO2)CN1C(=O)[C@@H](NC(=O)O[C@H]1CCOC1)C(C)(C)C)C(=O)C(=O)NC1CC1 [Compound 535] | 100 to 500 nM

Target: T2, full-length hepatitis C viral protein NS3•4A (Hepatitis C virus genotype 1a, UniProt P27958)
T2 construct: hexa-histidine (N); made in house; host or cells: Sf9 insect cells (baculovirus, pVL1392)
Assay: biochemical
Set-up: species or system HCV sub-type strain 1a
Details: Enzyme Assay 2 (HCV NS3 Peptide Cleavage Assay) activity, apparent Ki class

Row | Structure (SMILES) | Ki
27 | CCC[C@H](NC(=O)[C@@H]1C[C@]2(CC(c3cc(C)c(OC)c(C)c3)=NO2)CN1C(=O)[C@@H](NC(=O)CC1CCCCC1)C(C)(C)C)C(=O)C(N)=O [Compound 724] | < 100 nM
28 | CCC[C@H](NC(=O)[C@@H]1C[C@]2(CC(c3cc(Cl)c(OC)cc3C)=NO2)CN1C(=O)[C@@H](NC(=O)OC(C)(C)C)C(C)(C)C)C(=O)C(N)=O [Compound 626] | < 100 nM
29 | CC(C)(C)[C@H](NC(=O)[C@H]1C[C@@H]1c1ccccc1)C(=O)N1C[C@@]2(CC(c3cccc(Cl)c3)=NO2)C[C@H]1C(=O)N[C@@H](CC1CC1)C(=O)C(N)=O [Compound 699] | < 100 nM
30 | COc1c(C)cc(C2=NO[C@]3(C2)C[C@@H](C(=O)N[C@@H](CC2CC2)C(=O)C(N)=O)N(C(=O)[C@@H](NC(=O)CC2CCCCC2)C(C)(C)C)C3)cc1C [Compound 726] | < 100 nM
31 | CCC[C@H](NC(=O)[C@@H]1C[C@]2(CC(c3cc(F)cc4c3OCOC4)=NO2)CN1C(=O)[C@@H](NC(=O)CC1CCCCC1)C(C)(C)C)C(=O)C(=O)NC1CC1 [Compound 305] | 100 to 500 nM
32 | CNC(=O)C(=O)[C@H](CC1CC1)NC(=O)[C@@H]1C[C@]2(CC(c3cccc(Cl)c3)=NO2)CN1C(=O)[C@@H](NC(=O)[C@@H]1C[C@H]1c1ccccc1)C(C)(C)C [Compound 696] | < 100 nM

Same assay, conditions: Enzyme Assay 2, HCV NS3 Peptide Cleavage Assay, apparent Ki

Row | Structure (SMILES) | Ki
33 | CCC[C@H](NC(=O)[C@@H]1C[C@]2(CC(N3Cc4ccccc4C3)=NO2)CN1C(=O)[C@@H](NC(=O)OC1CCCC1)C(C)(C)C)C(=O)C(=O)NC1CC1 [Compound 904] | < 100 nM
34 | CCC[C@H](NC(=O)[C@@H]1C[C@]2(CC(c3cccc(Cl)c3)=NO2)CN1C(=O)[C@@H](NC(=O)OCC1(C)COC1)C(C)(C)C)C(=O)C(=O)NC1CC1 [Compound 957] | 100 to 500 nM
35 | CNC(=O)C(=O)[C@H](CC1CC1)NC(=O)[C@@H]1C[C@]2(CC(c3cccc(Cl)c3)=NO2)CN1C(=O)[C@@H](NC(=O)[C@H]1C[C@@H]1c1c[nH]cn1)C(C)(C)C [Compound 833] | < 100 nM
